In brackets after ≈: the same amount, converted by molar mass.
Experiments:
[1] = tested on: Cryptococcus gattii; test: Antifungal activity against Cryptococcus gattii; assay type: functional, Cryptococcus gattii VGI
[2] = tested on: Candida albicans; test: Antifungal activity against Candida albicans assessed as zone of inhibition by serial dilution and disc diffusion method; assay type: functional
[3] = tested on: Aspergillus flavus; test: Antifungal activity against Aspergillus flavus assessed as zone of inhibition by serial dilution and disc diffusion method; assay type: functional
[4] = tested on: Aspergillus niger; test: Antifungal activity against Aspergillus niger assessed as zone of inhibition by serial dilution and disc diffusion method; assay type: functional
[5] = tested on: Rhizopus; test: Antifungal activity against Rhizopus assessed as zone of inhibition by serial dilution and disc diffusion method; assay type: functional
[6] = tested on: Aspergillus flavus; test: Potency index, ratio of Amphotericin B IZ to test compound IZ for Aspergillus flavus assessed as zone of inhibition by serial dilution and disc diffusion method; assay type: functional
[7] = tested on: Aspergillus niger; test: Potency index, ratio of Amphotericin B IZ to test compound IZ for Aspergillus niger assessed as zone of inhibition by serial dilution and disc diffusion method; assay type: functional
[8] = tested on: Candida albicans; test: Potency index, ratio of Amphotericin B IZ to test compound IZ for Candida albicans assessed as zone of inhibition by serial dilution and disc diffusion method; assay type: functional
[9] = tested on: Rhizopus; test: Potency index, ratio of Amphotericin B IZ to test compound IZ for Rhizopus assessed as zone of inhibition by serial dilution and disc diffusion method; assay type: functional
[10] = tested on: Candida albicans; test: Antifungal activity against Candida albicans assessed as zone of inhibition at 25 to 100 ug/ml; assay type: functional
[11] = tested on: Cryptococcus neoformans; test: Antifungal activity against Cryptococcus neoformans; assay type: functional
[12] = tested on: Fusarium graminearum; test: Antifungal activity against Fusarium graminearum; assay type: functional
[13] = tested on: Saccharomyces cerevisiae; test: Antifungal activity against Saccharomyces cerevisiae; assay type: functional

Structure (SMILES)	inhibition zone (IZ) [2]	inhibition zone (IZ) [3]	inhibition zone (IZ) [4]	inhibition zone (IZ) [5]	Ratio [6]	Ratio [7]	Ratio [8]	Ratio [9]	also measured
C/C(=C(/OCCOc1ccc(Cl)cc1)c1ccc(Cl)cc1Cl)n1ccnc1 [OMOCONAZOLE]									MIC [1]: ≤ 4 µg/mL
Cc1nc(-c2cccs2)n(CCN2CCNCC2)c1C	16 - 200 mm	16 - 200 mm	16 - 200 mm	16 - 200 mm					
Cc1nc(-c2ccc(Cl)cc2)n(CCN2CCNCC2)c1C	16 - 20 mm	16 - 20 mm	16 - 20 mm	16 - 20 mm	1.5 - 2	1.5 - 2	1.5 - 2	1.5 - 2	
Clc1ccc(CO/N=C(\Cn2ccnc2)c2ccc(Cl)cc2Cl)c(Cl)c1 [OXICONAZOLE]									MIC [1]: ≤ 4 µg/mL
OC(Cn1cncn1)(Cn1cncn1)c1ccc(F)cc1F [FLUCONAZOLE]									inhibition zone (IZ) [10]: 2.6 - 2.8 cm
Cc1nc(-c2ccc(F)c(Br)c2)n(CCN2CCNCC2)c1C	18 - 21 mm	18 - 21 mm	18 - 21 mm	18 - 21 mm	1.5 - 2	1.5 - 2	1.5 - 2	1.5 - 2	
C[C@@H]1[C@H](O)[C@@H](C)/C=C/C=C/C=C/C=C/C=C/C=C/C=C/[C@H](O[C@@H]2O[C@H](C)[C@@H](O)[C@H](N)[C@@H]2O)C[C@@H]2O[C@](O)(C[C@@H](O)C[C@@H](O)[C@H](O)CC[C@@H](O)C[C@@H](O)CC(=O)O[C@H]1C)C[C@H](O)[C@H]2C(=O)O [AMPHOTERICIN B]	11 - 14 mm	11 - 14 mm	11 - 14 mm	11 - 14 mm					
CCCCCCCCO[C@H]1[C@H](N)[C@@H](O)[C@@H](O[C@@H]2[C@@H](O)[C@H](O[C@H]3O[C@H](CN)[C@@H](O)[C@H](O)[C@H]3N)[C@@H](N)C[C@H]2N)O[C@@H]1C									MIC [11]: 3.9 to 7.8 µg/mL (≈ 6.73 to 13.5 µM); MIC [12]: 7.8 µg/mL (≈ 13.5 µM); MIC [13]: 4 to 31.3 µg/mL (≈ 6.9 to 54 µM)
Cc1nc(-c2ccc(F)cc2)n(CCN2CCNCC2)c1C	16 - 22 mm	16 - 22 mm	16 - 22 mm	16 - 22 mm	1.5 - 2	1.5 - 2	1.5 - 2	1.5 - 2	

— ChEMBL document CHEMBL4627315, “Promising antifungal agents: A minireview” (2020)
